Measurements taken from patent US10028992B2, “Methods of treating muscular dystrophy” (BOARD OF REGENTS OF THE NEVADA SYSTEM OF HIGHER EDUCATION …, priority 2012, dated 2018).
Where two headings read alike, the source gives them in different places.

Tested on: α7 integrin promoter
Experiment: muscle cell-based assay: α7βgal+/− myoblasts/myotubes, LacZ reporter, β-galactosidase cleavage of FDG
Design: species or system mouse
Conditions: for α7 integrin expression in muscle: screen of DIVERSet library; for Results in a α7+/− β-galactosidase assay, Myotubes, 0.5 uM: compound at 0.5 uM; for Results in a α7+/− β-galactosidase assay, Myotubes, 1 uM: compound at 1 uM; for Results in a α7+/− β-galactosidase assay, Myotubes, 5 uM: compound at 5 uM; for Results in a α7+/− β-galactosidase assay, Myotubes, 10 uM: compound at 10 uM; for Results in a α7+/− β-galactosidase assay, Myotubes, 20 uM: compound at 20 uM; for Results in a α7+/− β-galactosidase assay, Myotubes, 40 uM: compound at 40 uM
Description: An α7 integrin null mouse was produced in which exon 1 of the gene encoding the α7 integrin was replaced by the LacZ reporter. In these mice, all the transcriptional regulatory elements of the α7 integrin promoter were retained, allowing β-galactosidase to report expression of 7 integrin. A primary myoblast cell line (designated α7βgal^+/−) isolated from 10 day old α7^+/− pups were analyzed for the ability of β-galactosidase to report α7 integrin expression. α7βgal^+/− myoblasts were differentiated and subjected to X-gal staining and western analysis (FIGS. 1A and 1B).
The activity of the α7 integrin promoter was measured by β-galactosidase cleavage of the non-fluorescent compound fluorescein di-β-D-galactopyranoside (FDG) to fluorescein. This assay was used to screen compound libraries to identify molecules that up-regulate α7 integrin expression in muscle.
Also evaluated was the effect of various isoforms of laminin and the ligand for α7β1 integrin on integrin expression. Positive hits were subjected to dose-response analysis, western analysis and a myostatin counterscreen (a negative regulator of muscle growth).

[1] = Mus musculus, given as log AC50 (negative values), read-out: Fit LogAC50 (converted)
[2] = curve class number, key not given
[3] = curve fit, activity at zero concentration
[4] = enhancement of α7 integrin expression in muscle cells
[5] = Mus musculus, enhancement of α7 integrin expression in muscle cells, read-out: EC50

| SMILES | Results in a α7+/− β-galactosidase assay, Myotubes, 0.5 uM | Results in a α7+/− β-galactosidase assay, Myotubes, 1 uM | Results in a α7+/− β-galactosidase assay, Myotubes, 5 uM | Results in a α7+/− β-galactosidase assay, Myotubes, 10 uM | Results in a α7+/− β-galactosidase assay, Myotubes, 20 uM | Results in a α7+/− β-galactosidase assay, Myotubes, 40 uM | other results |
| --- | --- | --- | --- | --- | --- | --- | --- |
| N#Cc1ccc(Sc2nc3ccccc3[nH]2)cc1C#N [Compound 218] | – | – | – | – | – | – | EC50 [1]: 10 µM; Score (Table 12 compound data): 42; Fit Curve Class [2]: 2.2; Fit HillSlope (curve fit): 3.6272; Fit Zero Activity [%] [3]: 13.7566% |
| CC(=O)Nc1nonc1-c1nc2ccccc2n1CCC(C)C [Compound 219] | – | – | – | – | – | – | EC50 [1]: 11.2 µM; Score (Table 12 compound data): 42; Fit Curve Class [2]: 2.2; Fit HillSlope (curve fit): 1.5936; Fit Zero Activity [%] [3]: −7.5793% |
| C=CCn1c(COc2ccc(Cl)cc2)nnc1SCc1ccc(C#N)cc1 [Compound 220] | – | – | – | – | – | – | EC50 [1]: 11.2 µM; Score (Table 12 compound data): 42; Fit Curve Class [2]: 2.1; Fit HillSlope (curve fit): 3.2975; Fit Zero Activity [%] [3]: 8.1688% |
| O=C(Cn1nc(-c2ccc(Cl)cc2)ccc1=O)N1CCC2(CC1)OCCO2 [Compound 221] | – | – | – | – | – | – | Fit Curve Class: 2.2; Fit HillSlope: 4.095; Fit Zero Activity [%]: 7%; Score: 41; EC50 (Mus musculus, read-out: Fit LogAC50 (converted)): 11.2 µM |
| CCOC(=O)/C(C(=O)c1ccccc1)=C(\N)NCCO [Compound 222] | – | – | – | – | – | – | EC50 [1]: 12.6 µM; Score (Table 12 compound data): 41; Fit Curve Class [2]: 2.2; Fit HillSlope (curve fit): 4.095; Fit Zero Activity [%] [3]: 9.8519% |
| Cn1c(SCC(=O)c2ccccc2)nc2c(c1=O)C1(CCCC1)Cc1ccccc1-2 [Compound ID# 1001, 3-methyl-2-[(2-oxo-2-phenylethyl)thio]-3H-spiro[benzo[h]quinazoline-5,1″-cyclopentan]-4(6H)-one] | – | – | – | – | – | – | Optimal Concentration [4]: 12.5 μm; EC50 (enhancement of α7 integrin expression in muscle cells, read-out: EC50): 3 µM; α7 integrin expression in muscle: increased |
| CCC(=O)c1ccccc1OCCCN1CCN(C)CC1.Cl [Compound ID# 1002, 1-{2-[3-(4-methyl-1-piperazinyl)propoxy]Phenyl}-1-propanone hydrochloride] | – | – | – | – | – | – | EC50 [5]: 1.5 µM; Optimal Concentration [4]: 12.5 μm; α7 integrin expression in muscle: increased |
| CCC(=O)c1ccccc1OCCCN1CCCCC1.Cl [Compound ID# 1003, 1 {2-[3-(1-piperidinyl)propoxy}phenyl}-1-propanone hydrochloride] | – | – | – | – | – | – | EC50 [5]: 5 µM; Optimal Concentration [4]: 25 μm; α7 integrin expression in muscle: increased |
| CC(=O)N(O)CCCCCNC(=O)CCC(=O)N(O)CCCCCNC(=O)CCC(=O)N(O)CCCCCN [Deferoxamine, deferoxamine, reference compound] | – | – | – | – | – | – | EC50 (Mus musculus, Myotube, α7βgal+/− myotubes, dose-response, read-out: EC50): 10 µM; EC50 [5]: 10 µM; Optimal Concentration [4]: 20 μm |
| O=C(CNC(=O)c1cccc(F)c1)N/N=C/c1cc(Br)ccc1OCc1ccccc1 [drawing 311] | −0.0152 | 0.1201 | 0.07121 | 0.000591 | −0.3123 | −0.2936 | – |
| Cc1ccccc1-n1c(S)nnc1Cc1cccs1 [drawing 312] | 0.05774 | 0.1436 | −0.03653 | 0.08958 | −0.1182 | −0.01563 | – |
| CCCCN(CC)Cc1ccc(C/N=C(\S)Nc2ccccc2F)o1 [drawing 313] | 0.05863 | 0.01354 | −0.01977 | 0.01526 | −0.2661 | −0.1331 | – |
| COc1ccc2c(c1)C(=C(C#N)C#N)C(=O)N2CCc1ccccc1 [drawing 314] | 0.006429 | 0.1052 | 0.04228 | −0.09235 | −0.8051 | −0.734 | – |
| Cn1cc(CN(CCO)Cc2cccs2)c(-c2ccccc2F)n1 [drawing 315] | 0.06985 | 0.09322 | 0.1949 | 0.1433 | −0.3105 | −0.2586 | – |
| CCN1C(=O)/C(=C(/C#N)c2nc3ccccc3[nH]2)c2ccccc21 [drawing 316] | −0.1345 | −0.06381 | 0.001992 | 0.06976 | −0.2893 | −0.2363 | – |
| Cc1ccc2c(c1)/C(=C/c1ccc(F)cc1)C(=O)N2 [drawing 317] | 0.09119 | 0.07633 | 0.0903 | −0.07782 | −0.4653 | −0.4823 | – |
| O=C1Nc2ccccc2/C1=C\c1ccnc2ccccc12 [drawing 318] | 0.1725 | 0.09552 | 0.4005 | 0.4118 | −0.4266 | −0.342 | – |
| CCc1c(C)sc(NC(=O)c2ccco2)c1C#N [drawing 319] | −0.09933 | −0.00083 | 0.02008 | 0.1359 | −0.1945 | −0.05014 | – |
| CCc1c(C)sc(NC(=O)c2ccco2)c1C#N [drawing 320] | 0.1503 | 0.1892 | 0.6497 | −0.03138 | −0.1002 | −0.1982 | – |
| O=C1Nc2ccccc2/C1=C/c1ccccc1Cl [drawing 321] | 0.1248 | 0.1803 | −0.0494 | −0.1957 | −0.4748 | −0.6409 | – |
| COc1cccc(CN2CCN(Cc3ccco3)CC2)c1.O=C(O)C(=O)O [drawing 322] | 0.1434 | 0.2622 | 0.003264 | −0.05758 | −0.1598 | −0.2345 | – |
| CC(C)Oc1ccc(C(=O)/C=C2\C(=O)Nc3ccccc32)cc1 [drawing 323] | 0.1381 | 0.1721 | −0.09555 | −0.3062 | −0.7604 | −0.9215 | – |
| COc1ccc(NC(=O)C2(N(C(=O)Cn3nnnc3N)c3ccc(OC)cc3)CCCCC2)cc1 [drawing 324] | 0.05381 | 0.1378 | 0.2107 | −0.07457 | −0.3633 | −0.2285 | – |
| COc1ccc(CCNC(=O)Cn2nnc(C(=O)Nc3ccc(Br)cc3)c2N)cc1OC [drawing 325] | 0.151 | −0.08157 | −0.07294 | −0.05869 | −0.4709 | −0.3389 | – |
| CC1(C)Cc2c(cnn2-c2cccc(F)c2)C(NC(=O)CCc2cnccn2)C1 (stereo not shown) [drawing 326] | 0.2586 | 0.1834 | −0.03061 | 0.09511 | −0.2257 | −0.2443 | – |
| O=C1Nc2ccccc2/C1=C/c1cccnc1 [drawing 327] | −0.03985 | 0.1859 | 0.1467 | 0.08556 | −0.2464 | −0.3705 | – |
